Data reported in ChEMBL document CHEMBL5241084, “Non-carbohydrate strategies to inhibit lectin proteins with special emphasis on galectins” (Eur J Med Chem, 2021).
pIC50: −log10 of the molar value. Starred links: 1 amine or outer side, 2 acyl side, 3 side chain; linkers in the order of their positions; H or OH if unused. Non-standard residues stand in square brackets, D forms with d. Residues, ends and D or L forms follow the SMILES beside them. X2 = O=C(CCc1cccc2c1Cc1c(CCN[*:1])cccc1-2)[*:2]; X3 = O=C(CCc1cccc2c1oc1c(CCN[*:1])cccc12)[*:2]; Nva = CCC[C@H](N)C(=O)O

What was measured:
HUVEC = assay: Antiproliferative activity against human HUVEC cells assessed as inhibition of basic fibroblast growth factor stimulated stimulated cell proliferation incubated for 72 hrs by CCK-8 assay; type: functional, cell-based
[1] = biological target: C-type lectin domain family 4 member K (Homo sapiens, UniProt Q9UJ71); assay: Inhibition of human Langerin overexpressed in human Raji cells incubated for 30 mins by flow cytometry; type: cell-based
Chain of C-type lectin domain family 4 member K (Q9UJ71 whole entry, the tested form may be a part): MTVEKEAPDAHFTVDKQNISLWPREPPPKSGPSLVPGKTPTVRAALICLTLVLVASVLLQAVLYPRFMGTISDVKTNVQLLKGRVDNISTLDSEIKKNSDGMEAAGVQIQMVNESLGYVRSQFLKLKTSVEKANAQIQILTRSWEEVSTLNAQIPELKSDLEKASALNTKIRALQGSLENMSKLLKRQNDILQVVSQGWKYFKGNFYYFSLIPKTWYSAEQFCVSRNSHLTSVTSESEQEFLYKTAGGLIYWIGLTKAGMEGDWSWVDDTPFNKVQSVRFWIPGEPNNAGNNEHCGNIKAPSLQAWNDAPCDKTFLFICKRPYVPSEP

SK-OV-3 = assay: Anticancer activity against human SK-OV-3 cells assessed as reduction in cell viability and measured after 72 hrs by CellTiter-Glo reagent based assay; type: functional; settings: SK-OV-3, 72 h
[2] = Anti-angiogenic activity in human MA148 cells xenografted in athymic nude mouse assesed as tumor growth inhibition at 10 mg/kg, sc weekly once for 28 days; type: functional; settings: MA148, 672 h, time 28 day, read-out: TGI
MDCK = assay: Antimigratory activity against dog MDCK cells assessed as inhibition of cell migration preincubated for 0.5 hrs followed by wounding and measured after 24 hrs by wound closure assay; type: functional, cell-based; settings: Canis lupus familiaris
MG-63 = assay: Anticancer activity against human MG-63 cells assessed as reduction in cell viability incubated for 48 hrs by MTT assay; type: functional, cell-based; settings: MG-63, 48 h
MCF7 = assay: Anticancer activity against human MCF7 cells assessed as reduction in cell viability incubated for 48 hrs by MTT assay; type: functional, cell-based; settings: MCF7, 48 h
A549 = assay: Anticancer activity against human A549 cells assessed as reduction in cell viability incubated for 48 hrs by MTT assay; type: functional, cell-based; settings: A549, 48 h
NCI-H460 = assay: Anticancer activity against human NCI-H460 cells assessed as reduction in cell viability incubated for 48 hrs by MTT assay; type: functional, cell-based; settings: NCI-H460, 48 h
[3] = Anticancer activity against human MDA-MB-231 cells assessed as reduction in cell viability incubated for 48 hrs by MTT assay; type: functional, cell-based; settings: MDA-MB-23, 48 h
Galectin-1 [4] = biological target: T1, Galectin-1 (Homo sapiens, UniProt P09382); assay: Binding affinity to Gal-1 (unknown origin) incubated for 30 mins by RP-HPLC analysis
T1 sequence (P09382 whole entry): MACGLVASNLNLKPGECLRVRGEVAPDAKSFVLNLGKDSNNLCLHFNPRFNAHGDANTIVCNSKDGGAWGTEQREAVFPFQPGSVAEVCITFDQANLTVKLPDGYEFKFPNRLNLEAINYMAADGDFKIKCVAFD

PC-3 = assay: Antiproliferative activity against human PC-3 cells assessed as reduction in cell proliferation incubated for 72 hrs by SRB assay; type: functional, cell-based; settings: PC-3, 72 h
DU-145 = assay: Antiproliferative activity against human DU-145 cells assessed as reduction in cell proliferation incubated for 72 hrs by SRB assay; type: functional, cell-based; settings: DU-145, 72 h
Galectin-1 [5] = biological target: T1, Galectin-1; assay: Binding affinity to human Gal-1 assessed as decrease in Gal-1 levels by ELISA
P-selectin = biological target: T2, P-selectin (Homo sapiens, UniProt P16109); assay: Inhibition of P-selectin (unknown origin) incubated for 30 mins by ELISA
T2 sequence (P16109 whole entry): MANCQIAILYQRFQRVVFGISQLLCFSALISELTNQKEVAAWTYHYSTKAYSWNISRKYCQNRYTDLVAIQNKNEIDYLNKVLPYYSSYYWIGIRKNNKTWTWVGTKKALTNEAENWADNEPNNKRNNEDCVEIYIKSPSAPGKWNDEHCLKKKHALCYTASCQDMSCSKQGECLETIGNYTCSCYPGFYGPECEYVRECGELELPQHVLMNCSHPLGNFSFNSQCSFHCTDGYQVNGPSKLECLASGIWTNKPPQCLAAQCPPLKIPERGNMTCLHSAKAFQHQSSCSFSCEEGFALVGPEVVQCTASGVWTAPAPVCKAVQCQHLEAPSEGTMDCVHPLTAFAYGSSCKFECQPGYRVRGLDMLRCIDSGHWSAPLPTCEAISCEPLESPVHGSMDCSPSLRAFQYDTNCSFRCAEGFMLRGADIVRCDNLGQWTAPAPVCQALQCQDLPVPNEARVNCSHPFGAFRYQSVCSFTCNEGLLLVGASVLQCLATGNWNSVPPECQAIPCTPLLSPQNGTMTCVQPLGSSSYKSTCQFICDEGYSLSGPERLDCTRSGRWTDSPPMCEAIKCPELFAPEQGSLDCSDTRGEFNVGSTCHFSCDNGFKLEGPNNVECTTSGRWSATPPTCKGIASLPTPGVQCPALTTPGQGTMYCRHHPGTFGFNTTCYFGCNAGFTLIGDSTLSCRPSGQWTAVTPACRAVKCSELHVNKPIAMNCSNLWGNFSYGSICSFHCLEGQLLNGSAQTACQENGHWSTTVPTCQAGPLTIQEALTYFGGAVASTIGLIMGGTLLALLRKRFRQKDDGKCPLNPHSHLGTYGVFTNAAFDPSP

Galectin-1 [6] = biological target: T1, Galectin-1; assay: Binding affinity to Gal-1 (unknown origin) by fluorescence spectroscopy

**Q.** With `CC[C@H](C)[C@H](NC(=O)[C@H](C)NC(=O)CCc1cccc2c1oc1c(CCNC(=O)[C@H](CC(C)C)NC(=O)[C@H](CCCCN)NC(=O)[C@H](CCSC)NC(=O)[C@H](CCC(N)=O)NC(=O)[C@@H](NC(=O)[C@@H](N)CO)C(C)C)cccc12)C(=O)N[C@H](C(=O)N[C@@H](CCCCN)C(=O)N[C@@H](CC(C)C)C(=O)N[C@@H](CC(N)=O)C(=O)N[C@@H](C)C(=O)O)C(C)C` (H-SVQMKL[X3]AIVKLNA-OH) as the compound, how does the pIC50 (HUVEC) read?
**A.** 5.30

**Q.** With `CCOC(=O)c1sc(=O)[nH]c1C(F)(F)F` as the compound, how does the pIC50 [1] read?
**A.** 2.97

**Q.** With `CC(=O)OCCN(CCOC(C)=O)c1ccc(-c2nc3cc(C(CC(N)=O)NC(=O)C(N)Cc4ccc(Cl)c(Cl)c4)ccc3n2Cc2ccc(F)c(F)c2)cc1` (centres undefined) as the compound, how does the pIC50 (SK-OV-3) read?
**A.** 4.80

**Q.** Which inhibition in vivo at 10 mg/kg [2] does the source give for H-ANIKLSVQMKLFKRHLKWKIIVKLNDGRELSLD-OH here?
**A.** 80%

**Q.** With `CCOC(=O)c1cc(C(F)(F)F)n[nH]1` as the compound, how does the pIC50 [1] read?
**A.** 3.24

**Q.** With `COc1c(C)c(OC)c2c(c1OCc1ccccc1)[C@H](COCc1ccccc1)N1[C@@H]3[C@H]4[C@H](C[C@H]([C@@H]1C#N)N4C)C(=O)N[C@H]23` as the compound, how does the pIC50 (MDCK) read?
**A.** 4.49

**Q.** With `CCC[C@H](NC(=O)[C@H](CCC(N)=O)NC(=O)[C@@H](NC(=O)[C@@H](N)CO)C(C)C)C(=O)N[C@@H](CCCCN)C(=O)N[C@@H](CC(C)C)C(=O)NCCc1cccc2c1Cc1c(CCC(=O)N[C@H](C(=O)N[C@H](C(=O)N[C@H](C(=O)N[C@@H](CCCCN)C(=O)N[C@@H](CC(C)C)C(=O)N[C@@H](CC(N)=O)C(=O)N[C@@H](C)C(=O)O)C(C)C)[C@@H](C)CC)[C@@H](C)CC)cccc1-2` (H-SVQ[Nva]KL[X2]IIVKLNA-OH) as the compound, how does the pIC50 (HUVEC) read?
**A.** 5.00

**Q.** With `COc1cccc2c1[C@H](CO)N1[C@@H](C#N)[C@H]3C[C@@H](C(=O)O)[C@H]([C@@H]1C2)N3C` as the compound, how does the pIC50 (MDCK) read?
**A.** 3.85

**Q.** With `CC1CN(Cc2cc(=O)oc3cc(OCc4cn(Cc5ccc(Cl)cc5Cl)nn4)ccc23)CC(C)O1` (centres undefined) as the compound, how does the pIC50 (MG-63) read?
**A.** 6.10

**Q.** Which results are given for `Oc1cccc(-n2cc(COc3ccc(-c4nc5cc(Cl)ccc5n4Cc4ccccc4)cc3)nn2)c1`?
**A.** pIC50 (MCF7): 5.89; pIC50 (A549): 6.20; pIC50 (NCI-H460): 6.00; pIC50 [3]: 6.03

**Q.** Which results are given for `O=C(Nc1ccc(O)cc1)c1ccc(-c2nc3cc(Cl)ccc3n2Cc2ccccc2)cc1`?
**A.** pIC50 (MCF7): 5.15; Activity (Galectin-1 [4]): 85.4%

**Q.** With `CCN1CCN(CC(C)c2ccc(F)cc2)CC1` (centres undefined) as the compound, how does the pIC50 [1] read?
**A.** 2.94

**Q.** With `Cc1n[nH]c(C)c1Cc1ccc(O)cc1` as the compound, how does the pIC50 [1] read?
**A.** 2.99

**Q.** With `CCOC(=O)C1CCN(Cc2cc(=O)oc3cc(OCc4ccc([N+](=O)[O-])cc4)ccc23)CC1` as the compound, how does the pIC50 (PC-3) read?
**A.** 5.13

**Q.** And the pIC50 (DU-145)?
**A.** 5.05

**Q.** What about the pIC50 (Galectin-1 [5]) of the same compound?
**A.** 4.00

**Q.** With `O=C(O)c1cccnc1Nc1cccc(C(F)(F)F)c1` [NIFLUMIC ACID] as the compound, how does the pIC50 [1] read?
**A.** 3.23

**Q.** With `CCCCCCCCCCCCCCCCNC(=O)/C=C/c1ccc(-c2[nH]c(-c3ccc(C4=NNC(C=O)C4)cc3)nc2-c2ccc(/C=C/C(=O)O)cc2)cc1` (centres undefined) as the compound, how does the pIC50 (P-selectin) read?
**A.** 6.52

**Q.** With `CCOC(=O)C1CCNC(=O)C1O` (centres undefined) as the compound, how does the pIC50 [1] read?
**A.** 2.92

**Q.** With `COc1ccc2c(c1)c(C/C=C(/O)c1cc3ccccc3oc1=O)cn2Cc1cccc(Cl)c1` as the compound, how does the Ka (Galectin-1 [6]) read?
**A.** 6.6 10^5/M
